Measured values taken from patent publication US20140243416A1, “Topical Antiandrogen Therapy for the Treatment of Becker's Nevus” (priority 2013, published 2014).

Columns and labels:
[1] = system: Becker's nevus; assay: Topical flutamide applied to a Becker's nevus (Example 1, single patient); format: in vivo, person; conditions: topical 4% solution, twice daily
From the text: FIG. 1a (left) depicts a person with a Becker's nevus before the antiandrogen treatment as described in example 1. FIG. 1b (right) depicts a person after treatment with a topical antiandrogen, specifically topical flutamide. […] A topical 4% solution of flutamide was applied twice daily to a Becker's nevus. […] (FIG. 1)

[2] = topical application; cited from earlier work

pigmentary change in the normal skin surrounding the Becker's nevus ([1]; during treatment): no pigmentary change | menstrual irregularities ([1]; patient-reported): denied any menstrual irregularities
Structure (SMILES): CC(C)C(=O)Nc1ccc([N+](=O)[O-])c(C(F)(F)F)c1 [flutamide, methyl-N-[4-nitro-3-(trifluoromethyl)phenyl]-propanamide]
cutaneous or systemic adverse effects [1]: No cutaneous or systemic adverse effects | absorption into the skin and systemic absorption [2]: systemic absorption is measurable
